Patent US10011607B2, “Ethynyl derivatives” (Hoffmann-La Roche Inc., priority 2015, dated 2018)

Molecular target: human mGlu4 receptor (Homo sapiens (Human), UniProt Q14833)
Assay: Ca2+ mobilization in vitro assay on recombinant human mGlu4 expressed in HEK293 cells (PAM)
Format: cell-based
Conditions: for Emax: HEK293, maximal response in % of maximal stimulatory effect of saturating L-AP4, read-out: Eff. (%); for EC50: HEK293 cells, human mGlu4, in presence of EC20 of L-AP4, read-out: EC50 (nM) mGlu4PAM
Outline: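 HEK293 cells stably expressing human mGlu4 at low level, Fluo-4AM loaded; compound (11 half-log dilutions) pre-incubated 10–30 min at 37 °C, then L-AP4 added at EC20 (determined daily). Peak fluorescence minus basal, normalized to saturating L-AP4; EC50, Hill slope and % Emax from four-parameter fit.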

Chain of human mGlu4 receptor (Q14833 33-912): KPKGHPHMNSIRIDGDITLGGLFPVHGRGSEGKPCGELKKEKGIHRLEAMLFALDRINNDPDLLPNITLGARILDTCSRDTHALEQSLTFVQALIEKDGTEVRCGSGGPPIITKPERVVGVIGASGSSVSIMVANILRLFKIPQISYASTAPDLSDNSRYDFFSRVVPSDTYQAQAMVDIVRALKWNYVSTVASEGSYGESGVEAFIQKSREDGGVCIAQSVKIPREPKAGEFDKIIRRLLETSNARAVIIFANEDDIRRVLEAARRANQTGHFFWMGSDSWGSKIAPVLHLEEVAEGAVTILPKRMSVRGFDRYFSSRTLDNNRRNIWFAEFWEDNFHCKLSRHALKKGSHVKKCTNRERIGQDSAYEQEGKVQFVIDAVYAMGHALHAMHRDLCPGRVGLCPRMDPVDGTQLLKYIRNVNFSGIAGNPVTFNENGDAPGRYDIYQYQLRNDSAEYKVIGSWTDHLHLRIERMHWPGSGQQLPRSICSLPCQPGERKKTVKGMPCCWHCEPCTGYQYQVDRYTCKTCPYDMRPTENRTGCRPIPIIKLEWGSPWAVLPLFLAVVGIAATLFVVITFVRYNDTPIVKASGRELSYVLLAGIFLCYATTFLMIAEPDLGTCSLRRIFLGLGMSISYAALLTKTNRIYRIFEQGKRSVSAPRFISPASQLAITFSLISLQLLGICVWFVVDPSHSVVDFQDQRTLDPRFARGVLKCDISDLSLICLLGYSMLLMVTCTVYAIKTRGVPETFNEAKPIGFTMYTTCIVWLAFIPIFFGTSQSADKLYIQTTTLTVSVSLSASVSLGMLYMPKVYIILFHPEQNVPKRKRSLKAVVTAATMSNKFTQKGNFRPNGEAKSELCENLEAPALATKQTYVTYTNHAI

SMILES | Emax [%] | EC50 [nM]
Cc1cncc(C)c1N1CCN2C(=O)N(c3c(F)cc(C#Cc4ccccc4)cc3F)C(=O)C[C@@]2(C)C1=O [Example 17, (9aS)-7-[2,6-difluoro-4-(2-phenylethynyl)phenyl]-2-(3,5-dimethyl-4-pyridyl)-9a-methyl-4,9-dihydro-3H-pyrazino[1,2-c]pyrimidine-1,6,8-trione] | 136 | 201
C[C@@]12CC(=O)N(c3c(F)cc(C#Cc4ccccc4)cc3F)C(=O)N1CCN(c1ccnc(Cl)c1)C2=O [Example 19, (9aS)-2-(2-chloro-4-pyridyl)-7-[2,6-difluoro-4-(2-phenylethynyl)phenyl]-9a-methyl-4,9-dihydro-3H-pyrazino[1,2-c]pyrimidine-1,6,8-trione] | 100 | 69
C[C@@]12CC(=O)N(c3c(F)cc(C#Cc4ccccc4)cc3F)C(=O)N1CCN(c1ccc(Cl)nc1)C2=O [Example 21, (9aS)-2-(6-chloro-3-pyridyl)-7-[2,6-difluoro-4-(2-phenylethynyl)phenyl]-9a-methyl-4,9-dihydro-3H-pyrazino[1,2-c]pyrimidine-1,6,8-trione] | 142 | 73
COc1ccc(N2CCN3C(=O)N(c4c(F)cc(C#Cc5ccccc5)cc4F)C(=O)C[C@@]3(C)C2=O)cn1 [Example 23, (9aS)-7-[2,6-difluoro-4-(2-phenylethynyl)phenyl]-2-(6-methoxy-3-pyridyl)-9a-methyl-4,9-dihydro-3H-pyrazino[1,2-c]pyrimidine-1,6,8-trione] | 114 | 61
Cn1cc(N2CCN3C(=O)N(c4c(F)cc(C#Cc5ccccc5)cc4F)C(=O)C[C@@]3(C)C2=O)ccc1=O [Example 24, (9aS)-7-[2,6-difluoro-4-(2-phenylethynyl)phenyl]-9a-methyl-2-(1-methyl-6-oxo-3-pyridyl)-4,9-dihydro-3H-pyrazino[1,2-c]pyrimidine-1,6,8-trione] | 103 | 128
C[C@@]12CC(=O)N(c3c(F)cc(C#Cc4ccccc4)cc3F)C(=O)N1CCN(c1ccncn1)C2=O [Example 27, (9aS)-7-[2,6-difluoro-4-(2-phenylethynyl)phenyl]-9a-methyl-2-pyrimidin-4-yl-4,9-dihydro-3H-pyrazino[1,2-c]pyrimidine-1,6,8-trione] | 136 | 39
Cc1nccc(N2CCN3C(=O)N(c4c(F)cc(C#Cc5ccccc5)cc4F)C(=O)C[C@@]3(C)C2=O)n1 [Example 31, (9aS)-7-[2,6-difluoro-4-(2-phenylethynyl)phenyl]-9a-methyl-2-(2-methylpyrimidin-4-yl)-4,9-dihydro-3H-pyrazino[1,2-c]pyrimidine-1,6,8-trione] | 91 | 88
C[C@@]12CC(=O)N(c3c(F)cc(C#Cc4ccccc4)cc3F)C(=O)N1CCN(c1cnccn1)C2=O [Example 33, (9aS)-7-[2,6-difluoro-4-(2-phenylethynyl)phenyl]-9a-methyl-2-pyrazin-2-yl-4,9-dihydro-3H-pyrazino[1,2-c]pyrimidine-1,6,8-trione] | 107 | 46
Cc1cc(N2CCN3C(=O)N(c4c(F)cc(C#Cc5ccccc5)cc4F)C(=O)C[C@@]3(C)C2=O)ncn1 [Example 35, (9aS)-7-[2,6-difluoro-4-(2-phenylethynyl)phenyl]-9a-methyl-2-(6-methylpyrimidin-4-yl)-4,9-dihydro-3H-pyrazino[1,2-c]pyrimidine-1,6,8-trione] | 121 | 91
Cc1cncnc1N1CCN2C(=O)N(c3c(F)cc(C#Cc4ccccc4)cc3F)C(=O)C[C@@]2(C)C1=O [Example 36, (9aS)-7-[2,6-difluoro-4-(2-phenylethynyl)phenyl]-9a-methyl-2-(5-methylpyrimidin-4-yl)-4,9-dihydro-3H-pyrazino[1,2-c]pyrimidine-1,6,8-trione] | 132 | 86
COc1ncc(N2CCN3C(=O)N(c4c(F)cc(C#Cc5ccccc5)cc4F)C(=O)C[C@@]3(C)C2=O)cn1 [Example 37, (9aS)-7-[2,6-difluoro-4-(2-phenylethynyl)phenyl]-2-(2-methoxypyrimidin-5-yl)-9a-methyl-4,9-dihydro-3H-pyrazino[1,2-c]pyrimidine-1,6,8-trione] | 90 | 55
CC(C)(C)Oc1ncc(N2CCN3C(=O)N(c4c(F)cc(C#Cc5ccccc5)cc4F)C(=O)C[C@@]3(C)C2=O)cn1 [Example 38, (9aS)-2-(2-tert-butoxypyrimidin-5-yl)-7-[2,6-difluoro-4-(2-phenylethynyl)phenyl]-9a-methyl-4,9-dihydro-3H-pyrazino[1,2-c]pyrimidine-1,6,8-trione] | 107 | –
CCOc1ncc(N2CCN3C(=O)N(c4c(F)cc(C#Cc5ccccc5)cc4F)C(=O)C[C@@]3(C)C2=O)cn1 [Example 39, (9aS or 9aR)-7-[2,6-difluoro-4-(2-phenylethynyl)phenyl]-2-(2-ethoxypyrimidin-5-yl)-9a-methyl-4,9-dihydro-3H-pyrazino[1,2-c]pyrimidine-1,6,8-trione] | 103 | 96
CC(C)Oc1ncc(N2CCN3C(=O)N(c4c(F)cc(C#Cc5ccccc5)cc4F)C(=O)C[C@@]3(C)C2=O)cn1 [Example 40, (9aS)-7-[2,6-difluoro-4-(2-phenylethynyl)phenyl]-2-(2-isopropoxypyrimidin-5-yl)-9a-methyl-4,9-dihydro-3H-pyrazino[1,2-c]pyrimidine-1,6,8-trione] | 103 | 113
C[C@@]12CC(=O)N(c3c(F)cc(C#Cc4ccccc4)cc3F)C(=O)N1CCN(c1cnc(OCc3ccccc3)nc1)C2=O [Example 41, (9aS)-2-(2-benzyloxypyrimidin-5-yl)-7-[2,6-difluoro-4-(2-phenylethynyl)phenyl]-9a-methyl-4,9-dihydro-3H-pyrazino[1,2-c]pyrimidine-1,6,8-trione] | 99 | 81
C[C@@]12CC(=O)N(c3c(F)cc(C#Cc4ccccc4)cc3F)C(=O)N1CCN(c1cnc(O)nc1)C2=O [Example 42, (9aS)-7-[2,6-difluoro-4-(2-phenylethynyl)phenyl]-2-(2-hydroxypyrimidin-5-yl)-9a-methyl-4,9-dihydro-3H-pyrazino[1,2-c]pyrimidine-1,6,8-trione] | 129 | 73
C[C@@]12CC(=O)N(c3c(F)cc(C#Cc4ccccc4)cc3F)C(=O)N1CCN(c1cnc(OC3CC3)nc1)C2=O [Example 43, (9aS)-2-[2-(cyclopropoxy)pyrimidin-5-yl]-7-[2,6-difluoro-4-(2-phenylethynyl)phenyl]-9a-methyl-4,9-dihydro-3H-pyrazino[1,2-c]pyrimidine-1,6,8-trione] | 153 | 171
COc1cnc(N2CCN3C(=O)N(c4c(F)cc(C#Cc5ccccc5)cc4F)C(=O)C[C@@]3(C)C2=O)cn1 [Example 44, (9aS)-7-[2,6-difluoro-4-(2-phenylethynyl)phenyl]-2-(5-methoxypyrazin-2-yl)-9a-methyl-4,9-dihydro-3H-pyrazino[1,2-c]pyrimidine-1,6,8-trione] | 107 | 123
C[C@@]12CC(=O)N(c3c(F)cc(C#Cc4ccccc4)cc3F)C(=O)N1CCN(c1cnc(OCc3ccccc3)cn1)C2=O [Example 45, (9aS)-2-(5-benzyloxypyrazin-2-yl)-7-[2,6-difluoro-4-(2-phenylethynyl)phenyl]-9a-methyl-4,9-dihydro-3H-pyrazino[1,2-c]pyrimidine-1,6,8-trione] | 122 | 190
C[C@@]12CC(=O)N(c3c(F)cc(C#Cc4ccccc4)cc3F)C(=O)N1CCN(c1cccnn1)C2=O [Example 47, (9aS)-7-[2,6-difluoro-4-(2-phenylethynyl)phenyl]-9a-methyl-2-pyridazin-3-yl-4,9-dihydro-3H-pyrazino[1,2-c]pyrimidine-1,6,8-trione] | 98 | 55
Cn1nc(N2CCN3C(=O)N(c4c(F)cc(C#Cc5ccccc5)cc4F)C(=O)C[C@@]3(C)C2=O)ccc1=O [Example 49, (9aS)-7-[2,6-difluoro-4-(2-phenylethynyl)phenyl]-9a-methyl-2-(1-methyl-6-oxo-pyridazin-3-yl)-4,9-dihydro-3H-pyrazino[1,2-c]pyrimidine-1,6,8-trione] | 109 | 197
C[C@@]12CC(=O)N(c3c(F)cc(C#Cc4ccccc4)cc3F)C(=O)N1CCN(c1ccnnc1)C2=O [Example 50, (9aS)-7-[2,6-difluoro-4-(2-phenylethynyl)phenyl]-9a-methyl-2-pyridazin-4-yl-4,9-dihydro-3H-pyrazino[1,2-c]pyrimidine-1,6,8-trione] | 133 | 74
Cc1nc(N2CCN3C(=O)N(c4c(F)cc(C#Cc5ccccc5)cc4F)C(=O)C[C@@]3(C)C2=O)cn1CC(F)(F)F [Example 61, (9aS)-7-[2,6-difluoro-4-(2-phenylethynyl)phenyl]-9a-methyl-2-[2-methyl-1-(2,2,2-trifluoroethyl)imidazol-4-yl]-4,9-dihydro-3H-pyrazino[1,2-c]pyrimidine-1,6,8-trione] | 172 | 272
Cn1ccc(N2CCN3C(=O)N(c4c(F)cc(C#Cc5ccccc5)cc4F)C(=O)C[C@@]3(C)C2=O)n1 [Example 63, (9aS)-7-[2,6-difluoro-4-(2-phenylethynyl)phenyl]-9a-methyl-2-(1-methylpyrazol-3-yl)-4,9-dihydro-3H-pyrazino[1,2-c]pyrimidine-1,6,8-trione] | 136 | 165
Cn1nccc1N1CCN2C(=O)N(c3c(F)cc(C#Cc4ccccc4)cc3F)C(=O)C[C@@]2(C)C1=O [Example 65, (9aS)-7-[2,6-difluoro-4-(2-phenylethynyl)phenyl]-9a-methyl-2-(2-methylpyrazol-3-yl)-4,9-dihydro-3H-pyrazino[1,2-c]pyrimidine-1,6,8-trione] | 92 | 92
